PMC6451745, “Development and dosimetry of ^203Pb/^212Pb-labelled PSMA ligands: bringing “the lead” into PSMA-targeted alpha therapy?” (European Journal of Nuclear Medicine and Molecular Imaging, 2019)
Where two headings read alike, the source gives them in different places. Values belong to the compound of their own block, whether it stands above or below them.

Tests used:
[1] = cited from earlier work
[2] = set-up: method as in PMID 28891033; settings: projected treatment activity 1 GBq; cited from earlier work
[3] = set-up: method as in PMID 28408529; settings: projected treatment activity 6–8 MBq; cited from earlier work
[4] = set-up: method as in PMID 25883127; settings: previously determined; cited from earlier work
[5] = set-up: method as in PMID 10755652, doi:10.1039/C39890000145, doi:10.1021/ja00130a008; settings: cited from earlier work
[6] = tested on: C4-2 tumour-bearing mice; assay: Planar scintigraphic imaging in tumour-bearing mice; format: in vivo; settings: ^203Pb-labelled
Experimental: (§1) The in vivo experiments were carried out in accordance with the laws on animal welfare of the Federal Republic of Germany. For imaging and biodistribution studies, male BALB/c nu/nu mice (20–25 g; Charles River) bearing C4-2 tumour xenografts were used. The mice were inoculated subcutaneously in the right trunk with 5 × 10^6 C4-2 cells in 50% Matrigel in Opti-MEM (1×). For small-animal imaging the mice were anaesthetized with 2% sevoflurane, and then 0.1 nmol (1.0 MBq) of the respective ^203Pb ligand was injected into a tail vein. Serial planar scans were performed using a Gamma Imager-sct (Biospace Lab, Paris, France) with a parallel collimator (35 mm/1.8 mm/0.2 mm) after 10 min, 1 h, 4 h and 24 h. Based on the imaging results, compound CA012 was chosen for biodistribution studies. Experiments were performed in triplicate. For biodistribution, 0.025 nmol (1 MBq) of labelled compound per mouse was administered by injection into a tail vein. After 10 min, 1 h, 4 h and 24 h the mice were killed, the organs were dissected and weighed, and activity was measured using a gamma counter (Packard Cobra Auto-gamma). The organ uptakes were calculated as the percentage of the injected dose per gram of tissue (%ID/g).

[7] = Stability of ^203Pb-labelled compounds in human serum; format: in vitro ADME; settings: 37 °C, up to 72 h, radio-HPLC
Experimental: The conjugates (1 mM in water, 80 μl, 80 nmol) were added to 400 μl sodium acetate buffer (0.4 M in water, pH 5.0), 10 μl ascorbic acid (20% in water) and 140 μl ^203Pb-chloride solution in 0.04 M HCl, with specific activity approximately 102.6 TBq/g (Lantheus Medical Imaging, North Billerica, MA, USA). The mixture was then heated at 95 °C for 5 min. Labelling was controlled by radio-HPLC. The stability of the ^203Pb-labelled compounds was evaluated in 300 μl human serum at 37 °C for up to 72 h. After precipitation of the serum proteins by addition of two parts acetonitrile, the solution was centrifuged for 5 min at 13,000 rpm (twice) and the supernatant was analysed by radio-HPLC (0–100% MeCN over 5 min, monolith column).

[8] = molecular target: T1, PSMA (Homo sapiens, UniProt Q04609); assay: Competitive binding assay on C4-2 cells; settings: reference ^68Ga-labelled PSMA-HBED-CC dimer (PSMA-10), mean ± SD
T1 construct: host or cells: C4-2 cells (LNCaP subline)
Experimental: (§2) In vitro and in vivo experiments were performed using the PSMA-positive C4-2 cell line, a subline of the LNCaP (lymph node carcinoma of the prostate) cell line (CRL-3314; American Type Culture Collection). C4-2 cells were cultivated in RPMI-1640 (PAN Biotech) supplemented with 10% fetal calf serum and stable glutamine (PAN Biotech). Cells were grown at 37 °C and incubated in humidified air equilibrated with 5% CO2.
A MultiScreenHTS-DV filter plate was incubated at room temperature with 100 μl phosphate-buffered saline (PBS) containing 1% bovine serum albumin (BSA) per well for 30 min. After removal of the PBS/BSA solution, 1 × 10^5 C4-2 cells in Opti-MEM were added to each well. All nonlabelled compounds were dissolved in 300 μl Opti-MEM at the following concentrations: 0, 0.5, 1, 2.5, 5, 10, 25, 50, 100, 500, 1,000 and 5,000 nM. Subsequently, 3 μl of the radiolabelled compound was added, and 50 μl of this mixture was taken to obtain a solution containing 0.75 nM of the radiolabelled ligand. After 45 min incubation at 37 °C, the cells were washed twice with PBS, the radioactivity accumulated in the cells was collected, and the remaining radioactivity was measured in a gamma counter. The inhibitory potency was determined using ^68Ga-labelled PSMA-HBED-CC dimer (i.e. PSMA-10) as the reference. The 50% inhibitory concentration was calculated using a nonlinear regression algorithm (GraphPad Prism 5.01 software). The experiments were performed in quadruplicate.

[9] = tested on: C4-2 tumour-bearing mice; assay: Biodistribution (organ distribution) in tumour-bearing mice; format: in vivo; settings: for Organ distribution, Kidneys: 0.025 nmol i.v., n = 3
Experimental: as §1

[10] = tested on: C4-2 cells; assay: Determination of specific internalization ratio; format: cell-based
Experimental: as §2
For determination of the specific internalization ratio, 24-well plates were incubated for 20 min with 0.1% poly-L-lysine in PBS at room temperature and washed once with PBS. In the next step, 1 ml RPMI containing 1 × 10^5 C4-2 cells was added to each well and incubated overnight. The conditions during the experiment for each compound were: incubation at 37 °C or 4 °C with or without receptor blocking via 2-(phosphonomethyl)pentanedioic acid (2-PMPA; Axxora) at a final concentration of 500 μM. The cells were then incubated with 250 μl of a 30 nM solution of ^203Pb-labelled compound. The plates were incubated either for 45 min in a water bath at 37 °C or on ice at 4 °C. The cells were then washed three times with 1 ml ice-cold PBS and incubated with 0.5 ml glycine (50 mM in HCl, pH 2.8) for 5 min. After an additional washing step with 1 ml ice-cold PBS, the cells were lysed with 0.5 ml 0.3 M NaOH and collected, and the radioactivity was measured with a gamma counter for 1 min. The specific cellular uptake was determined as the percentage of initially added radioactivity bound per 10^6 cells (%IA/10^6 cells) by subtraction of the respective uptake under blocking conditions. All experiments were performed in triplicate.

[11] = molecular target: T1, PSMA; set-up: method as in PMID 25883127; settings: reference compound; cited from earlier work
[12] = ^203Pb-labelled compound 30 nM, 45 min, 2-PMPA blocking subtracted, mean ± SD n = 3

T1 sequence (Q04609 whole entry): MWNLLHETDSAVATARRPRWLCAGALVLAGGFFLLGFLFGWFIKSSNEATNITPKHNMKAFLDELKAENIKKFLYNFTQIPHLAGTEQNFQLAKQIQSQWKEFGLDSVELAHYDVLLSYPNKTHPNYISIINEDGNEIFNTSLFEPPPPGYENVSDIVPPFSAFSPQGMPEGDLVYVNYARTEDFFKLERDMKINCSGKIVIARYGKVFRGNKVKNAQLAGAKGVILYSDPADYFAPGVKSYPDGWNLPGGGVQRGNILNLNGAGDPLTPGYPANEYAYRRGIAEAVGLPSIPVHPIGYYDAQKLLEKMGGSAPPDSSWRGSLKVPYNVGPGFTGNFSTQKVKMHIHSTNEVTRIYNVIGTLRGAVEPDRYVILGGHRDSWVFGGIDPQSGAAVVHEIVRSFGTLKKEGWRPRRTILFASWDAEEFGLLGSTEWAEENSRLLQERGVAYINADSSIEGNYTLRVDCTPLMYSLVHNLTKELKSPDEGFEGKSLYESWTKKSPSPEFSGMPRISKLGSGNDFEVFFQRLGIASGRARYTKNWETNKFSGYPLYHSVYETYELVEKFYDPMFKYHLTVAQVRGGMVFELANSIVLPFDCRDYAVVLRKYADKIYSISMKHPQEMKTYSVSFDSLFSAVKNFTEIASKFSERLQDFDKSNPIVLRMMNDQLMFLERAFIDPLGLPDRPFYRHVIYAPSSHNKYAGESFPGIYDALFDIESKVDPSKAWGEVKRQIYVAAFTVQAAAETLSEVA

Compound: O=C(O)CC[C@H](NC(=O)N[C@@H](CCCCNC(=O)C(Cc1ccc2ccccc2c1)NC(=O)C1CCC(CNC(=O)CN2CCN(CC(=O)O)CCN(CC(=O)O)CCN(CC(=O)O)CC2)CC1)C(=O)O)C(=O)O.[68Ga+3] (some centres unmarked) [^68Ga-PSMA-617]
- tumour uptake ([1]; mice): 8.5 ± 4.1 %ID/g

Compound: O=C(O)CC[C@H](NC(=O)N[C@@H](CCCCNC(=O)C(Cc1ccc2ccccc2c1)NC(=O)C1CCC(CNC(=O)CN2CCN(CC(=O)O)CCN(CC(=O)O)CCN(CC(=O)O)CC2)CC1)C(=O)O)C(=O)O.[213Bi+3] (some centres unmarked) [^213Bi-PSMA-617]
- Tissue equivalent dose, Kidneys [2]: 8.1 SvRBE5
- Tissue equivalent dose, Red marrow [2]: 0.5 SvRBE5
- Tissue equivalent dose, Salivary glands [2]: 8.1 SvRBE5

Compound: O=C([O-])CC[C@H](NC(=O)N[C@@H](CCCCNC(=O)[C@H](Cc1ccc2ccccc2c1)NC(=O)C1CCC(CNC(=O)CN2CCN(CC(=O)[O-])CCN(CC(=O)[O-])CCN(CC(=O)[O-])CC2)CC1)C(=O)[O-])C(=O)[O-].[225Ac].[H+].[H+].[H+] (some centres unmarked) [^225Ac-PSMA-617]
- Tissue equivalent dose, Kidneys [3]: 4.2 SvRBE5
- Tissue equivalent dose, Red marrow [3]: 0.3 SvRBE5
- Tissue equivalent dose, Salivary glands [3]: 13.8 SvRBE5

Compound: O=C([O-])CN1CCN(CC(=O)[O-])CCN(CC(=O)NCC2CCC(C(=O)N[C@@H](Cc3ccc4ccccc4c3)C(=O)NCCCC[C@H](NC(=O)N[C@@H](CCC(=O)O)C(=O)O)C(=O)O)CC2)CCN(CC(=O)[O-])CC1.[177Lu+3] (some centres unmarked) [^177Lu-PSMA-617]
- specific internalization [4]: 18 %ID per 10^6cells

Compound: NC(=O)CN1CCN(CC(N)=O)CCN(CC(N)=O)CCN(CC(N)=O)CC1 [TCMC, 1,4,7,10-tetra-(2-carbamoyl-methyl)-cyclododecane]
- pH at which stable complexes with lead(II) are formed [5]: > 2

- tumour uptake in mice (planar scintigraphy) ([6]; 1 h after injection, Fig. 3): low tumour uptake
- stability in human serum [7]: high stability
- Ki [8]: 28.1 ± 2.9 nM
Compound: NC(=O)CN1CCN(CC(N)=O)CCN(CC(=O)NC(Cc2ccc3ccccc3c2)C(=O)NCCCC[C@H](NC(=O)N[C@@H](CCC(=O)O)C(=O)O)C(=O)O)CCN(CC(N)=O)CC1 (some centres unmarked) [CA011]

- Organ distribution, Kidneys ([9]; C4-2 tumour-bearing mice, 1 h): 5.1 ± 2.5 % ID/g
- Organ distribution, Kidneys ([9]; C4-2 tumour-bearing mice, 24 h): 0.9 ± 0.1 % ID/g
- kidney accumulation ([9]; mice, after 24 h): 2%
- kidney clearance (comparison) ([6]; Fig. 4): faster kidney clearance than CA009
- stability in human serum [7]: high stability
- Ki [8]: 24.3 ± 3.7 nM
Compound: NC(=O)CN1CCN(CC(N)=O)CCN(CC(=O)NCC2CCC(C(=O)NC(Cc3ccc4ccccc4c3)C(=O)NCCCC[C@H](NC(=O)N[C@@H](CCC(=O)O)C(=O)O)C(=O)O)CC2)CCN(CC(N)=O)CC1 (some centres unmarked) [CA012]
- specific uptake in tumours versus other organs ([9]; in vivo, C4-2 tumour-bearing mice): higher specific uptake in tumours than in other organs
- specific ligand-induced internalization [10]: 15.6 ± 2.1 %IA/10^6 cells
- Specific cell surface [10, 12]: 132.1 ± 4.3 %IA/10^6 cells
- Specific lysate (specific internalization) [10, 12]: 15.6 ± 2.1 %IA/10^6 cells

Compound: O=C(O)CN1CCN(CC(=O)O)CCN(CC(=O)O)CCN(CC(=O)O)CC1 [DOTA, 1,4,7,10-tetraazacyclododecane-1,4,7,10-tetraacetic acid]
- pH at which stable complexes with lead(II) are formed [5]: > 3.5

Compound: O=C(O)CC[C@H](NC(=O)N[C@@H](CCCCNC(=O)[C@H](Cc1ccc2ccccc2c1)NC(=O)[C@H]1CC[C@H](CNC(=O)CN2CCN(CC(=O)O)CCN(CC(=O)O)CCN(CC(=O)O)CC2)CC1)C(=O)O)C(=O)O [PSMA-617]
- affinity (in words) [11]: single-digit affinity
- kidney accumulation ([1]; mice, after 24 h): 1%
- kidney accumulation ([1]; mouse, in vivo, 1 h): 113.3 ± 24.4 %ID/g
